Results taken from patent EP0892802B1, “SPIRO(CYCLOPENT(B)INDOLE-PIPERIDINES) AND N-PHENYL-HYDRAZON INTERMEDIATES FOR THEIR PREPARATION, BOTH BEING ACETYLCHOLINESTERASE AND MAO INHIBITORS” (priority 1996, dated 1997).

Assays:
monoamine oxidase-A = biological target: T1, monoamine oxidase-A (Rattus norvegicus, UniProt P21396); assay: in vitro inhibition of monoamine oxidase assay (modified Kindt), MAO-A; assay type: biochemical, Male Wistar rats; details: rat whole brain minus cerebellum, mitochondrial P2 pellet; substrate [3H]-5-hydroxytryptamine 200 µM; preincubated 15 minutes, incubated 30 minutes at 37°C; log-probit analysis
T1 construct: serves as the tissue source for mitochondrial monoamine oxidase; from tissue; host or cells: rat whole brain minus cerebellum, P2 (crude mitochondrial) pellet
T1 sequence (P21396 1-526): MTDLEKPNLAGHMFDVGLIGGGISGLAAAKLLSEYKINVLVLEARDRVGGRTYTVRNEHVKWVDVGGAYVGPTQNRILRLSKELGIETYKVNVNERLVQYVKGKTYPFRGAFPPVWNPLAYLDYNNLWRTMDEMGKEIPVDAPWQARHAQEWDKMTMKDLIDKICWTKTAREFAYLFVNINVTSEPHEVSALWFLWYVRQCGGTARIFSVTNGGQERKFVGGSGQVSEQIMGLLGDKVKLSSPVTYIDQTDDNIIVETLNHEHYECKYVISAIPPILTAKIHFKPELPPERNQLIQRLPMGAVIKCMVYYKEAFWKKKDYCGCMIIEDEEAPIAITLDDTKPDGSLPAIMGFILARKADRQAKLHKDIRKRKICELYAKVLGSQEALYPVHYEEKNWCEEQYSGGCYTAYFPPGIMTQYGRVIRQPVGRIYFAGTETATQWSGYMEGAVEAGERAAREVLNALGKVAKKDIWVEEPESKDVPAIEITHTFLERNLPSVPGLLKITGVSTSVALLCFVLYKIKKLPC
Protocol: (§1) In this assay, a modification of an assay described by M. V. Kindt, et al., Europ.
The following reagents are prepared: • 1. Phosphate buffer (0.5 M), pH 7.4; 134.4 g dibasic sodium phosphate heptahydrate q.s. to 1 liter in distilled water (A) 17.3 g monobasic sodium phosphate q.s. to 250 ml in distilled water (B) Adjust pH of A to 7.4 by slowly adding B (volumes as needed) Dilute 1:10 in distilled water (0.05 M phosphate buffer, pH 7.4) • 2. 0.25 M Sucrose (phosphate buffered): 21.4 g sucrose, q.s. to 250 ml with 0.05 M phosphate buffer • 3. Substrate for monoamine oxidase-A: • a. serotonin creatine sulphate (5-hydroxytryptamine) is obtained from Sigma Chemical Company. A 5 mM stock solution is made up in 0.01 N-hydrochloric acid. The solution is used to dilute the specific activity of the [^3H]-hydroxytryptamine. • b. [^3H]-5-hydroxytryptamine binoxalate (20-30 Ci/mmol) is obtained from New England Nuclear. • c. Add 12 µl of [^3H]-5-hydroxytryptamine to 2 ml of the 5 mM 5-hydroxytryptamine solution. (Final amine concentration in the assay is 200 µM: see below.) • 4. Substrate for monoamine oxidase-B • a. β-phenethylamine is obtained from Sigma Chemical Company. A 5 mM stock solution is made up in 0.01 N-hydrochloric acid. The solution is used to dilute the specific activity of the [^14C]-β-phenethylamine. • b. β-[ethyl-1-^14C]-phenethylamine hydrochloride (40-50 mCi/mmol) is obtained from New England Nuclear. • c. Add 12 µl of [^14C]-β-phenethylamine to 2 ml of the 5 mM β-phenethylamine solution. (Final amine concentration in the assay is 200 µM: see below.) • 5. Equal amounts of monoamine oxidase-A (5-hydroxytryptamine) and monoamine oxidase-B (β-phenethylamine) substrates are combined for simultaneously testing both monoamine oxidase types, i.e., mixed stock solution of 2.5 mM 5-hydroxytryptamine and 2.5 mM β-phenethylamine. 40 µl of this mixed solution gives a 200 µM final concentration of each amine in the assay. […]

acetylcholinesterase = biological target: T2, acetylcholinesterase (Rattus norvegicus, UniProt P37136); assay: biochemical; set-up: species or system Male Wistar rats; details: rat corpora striata homogenate; preincubated 10 minutes at 37°C; acetylthiocholine substrate 5 millimolar final; log-probit analysis; read-out: Inhibition of Acetylcholinesterase Activity IC50
T2 construct: corpora striata dissected free, weighted and homogenized in 19 volumes; from tissue; host or cells: rat brain corpora striata, crude homogenate
T2 sequence (P37136 32-614): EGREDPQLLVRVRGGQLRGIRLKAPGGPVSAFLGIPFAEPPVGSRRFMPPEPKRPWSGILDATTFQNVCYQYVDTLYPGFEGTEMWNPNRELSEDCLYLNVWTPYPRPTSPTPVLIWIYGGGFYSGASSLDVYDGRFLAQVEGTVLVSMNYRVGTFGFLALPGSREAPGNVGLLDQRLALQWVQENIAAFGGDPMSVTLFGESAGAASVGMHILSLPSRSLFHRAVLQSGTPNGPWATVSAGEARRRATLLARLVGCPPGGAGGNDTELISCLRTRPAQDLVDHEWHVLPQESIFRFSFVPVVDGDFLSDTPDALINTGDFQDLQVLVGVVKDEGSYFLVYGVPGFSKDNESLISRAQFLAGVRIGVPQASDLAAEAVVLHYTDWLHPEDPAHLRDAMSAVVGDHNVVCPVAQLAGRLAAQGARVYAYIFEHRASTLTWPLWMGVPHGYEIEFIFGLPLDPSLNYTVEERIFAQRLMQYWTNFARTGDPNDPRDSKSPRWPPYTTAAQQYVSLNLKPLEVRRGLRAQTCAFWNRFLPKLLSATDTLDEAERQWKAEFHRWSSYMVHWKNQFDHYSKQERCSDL
Protocol: 0.05M Phosphate Buffer (pH 7.2) A solution of monobasic sodium phosphate monohydrate (6.85 g) in distilled water (100 ml) is added to a solution of dibasic sodium phosphate heptahydrate (13.4 g) and distilled water (100 ml) until a pH of 7.2 was attained. The solution was diluted 1 to 10 with distilled water. • 2. […] 5,5-Dithiobisnitrobenzoic acid in Buffer The 0.05M Phosphate Buffer (pH 7.2) was added to 5.5-dithiobisnitrobenzoic acid to a total volume of 100 ml, i.e., a quantity sufficient (gs) to 100 ml. • 4. Stock Solution of Drug A 2 millimolar stock solution of the test drug is prepared in a quantity sufficient of either acetic acid or dimethyl sulfoxide to volume with 5,5-dithiobisnitrobenzoic acid in Buffer. […]
Male Wistar rats are decapitated, brains rapidly removed, corpora striata dissected free, weighted and homogenized in 19 volumes (approximately 7 mg protein/ml) of 0.05M Phosphate Buffer (pH 7.2) using a Potter-Elvejhem homogenizer. […] Enzyme activity is measured with a Beckman DU-50 spectrophotometer with the following software and instrument settings: • 1. […]
Blank values are determined for each run to control for non-enzymatic hydrolysis of substrate and these values are automatically subtracted by the Kindata program available on kinetics soft-pac module. This program also calculates the rate of absorbance change for each cuvette. […]

monoamine oxidase-B = biological target: T3, monoamine oxidase-B (Rattus norvegicus, UniProt P19643); assay: in vitro inhibition of monoamine oxidase assay (modified Kindt), MAO-B; assay type: biochemical, Male Wistar rats; details: rat whole brain minus cerebellum, mitochondrial P2 pellet; substrate [14C]-β-phenethylamine 200 µM; preincubated 15 minutes, incubated 30 minutes at 37°C; log-probit analysis
T3 construct: serves as the tissue source for mitochondrial monoamine oxidase; from tissue; host or cells: rat whole brain minus cerebellum, P2 (crude mitochondrial) pellet
T3 sequence (P19643 1-520): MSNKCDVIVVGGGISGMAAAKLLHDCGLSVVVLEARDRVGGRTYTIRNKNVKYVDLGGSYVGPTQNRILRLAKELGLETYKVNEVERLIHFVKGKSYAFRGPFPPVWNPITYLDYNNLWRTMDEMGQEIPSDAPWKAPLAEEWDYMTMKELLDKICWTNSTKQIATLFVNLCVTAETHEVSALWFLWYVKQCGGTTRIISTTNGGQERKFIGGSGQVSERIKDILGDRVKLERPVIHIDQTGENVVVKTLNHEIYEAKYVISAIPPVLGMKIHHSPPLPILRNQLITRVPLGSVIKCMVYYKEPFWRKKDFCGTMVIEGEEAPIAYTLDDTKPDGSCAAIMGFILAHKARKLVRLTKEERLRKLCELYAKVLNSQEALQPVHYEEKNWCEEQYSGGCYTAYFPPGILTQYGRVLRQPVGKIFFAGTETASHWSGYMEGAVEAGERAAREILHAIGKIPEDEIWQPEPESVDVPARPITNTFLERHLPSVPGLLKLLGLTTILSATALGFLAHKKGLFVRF
Protocol: as §1
The following reagents are prepared: • 1. Phosphate buffer (0.5 M), pH 7.4; 134.4 g dibasic sodium phosphate heptahydrate q.s. to 1 liter in distilled water (A) 17.3 g monobasic sodium phosphate q.s. to 250 ml in distilled water (B) Adjust pH of A to 7.4 by slowly adding B (volumes as needed) Dilute 1:10 in distilled water (0.05 M phosphate buffer, pH 7.4) • 2. 0.25 M Sucrose (phosphate buffered): 21.4 g sucrose, q.s. to 250 ml with 0.05 M phosphate buffer • 3. Substrate for monoamine oxidase-A: • a. serotonin creatine sulphate (5-hydroxytryptamine) is obtained from Sigma Chemical Company. A 5 mM stock solution is made up in 0.01 N-hydrochloric acid. The solution is used to dilute the specific activity of the [^3H]-hydroxytryptamine. • b. [^3H]-5-hydroxytryptamine binoxalate (20-30 Ci/mmol) is obtained from New England Nuclear. • c. Add 12 µl of [^3H]-5-hydroxytryptamine to 2 ml of the 5 mM 5-hydroxytryptamine solution. (Final amine concentration in the assay is 200 µM: see below.) • 4. Substrate for monoamine oxidase-B • a. β-phenethylamine is obtained from Sigma Chemical Company. A 5 mM stock solution is made up in 0.01 N-hydrochloric acid. […]

Structure (SMILES)	IC50 (monoamine oxidase-A)	IC50 (acetylcholinesterase)	IC50 (monoamine oxidase-B)
COc1cccc(CN2CCC3(CCc4c3n(C)c3ccccc43)CC2)c1 [1,4-Dihydro-1'-(3-methoxyphenyl)methyl-4-methylspiro[cyclopent[b]indole-3(2H), 4'piperidine]]	51.2 µM		
COc1ccc(CN2CCC3(CCc4c3n(C)c3ccccc43)CC2)cc1 [1,4-Dihydro-1'-(4-methoxyphenyl)methyl-4-methylspiro[cyclopent[b]indole-3(2H), 4'-piperidine]]	98.6 µM	65.2 µM	125 µM
CNC(=O)Oc1ccc2c(c1)c1c(n2C)C2(CC1)CCN(Cc1ccccc1)CC2 [1,4-Dihydro-4-methyl-7-methylaminocarbonyloxy-1'-phenylmethylspiro[cyclopent[b]indole-3(2H), 4'-piperidine]]		10.5 µM	
COc1cc(Br)c2oc(C3CCNCC3)cc2c1 [brofaromine, reference compound]	0.18 µM		
